Measurements as given in patent US20260102407A1, “TREATMENT METHODS” (priority 2020, published 2026).

What was measured:
FosB/ΔFosB = assay: Western blot, serum-inducible FosB/ΔFosB expression in HMEC-1; format: cell-based, human; details: 30 μM compound, 10% FBS 1 h
Protocol: Western blot analysis with extracts of cells treated with serum. HMEC-1 (80-90% confluency) were arrested in serum-free MCDB131 medium without EGF or hydrocortisone for 20 h. Cells were treated with 30 μM compound in serum-free MCDB131 medium for 4 h, and the medium was changed to complete medium (with 10% FBS with EGF and hydrocortisone) with 30 μM compound for 1 h. Total protein was harvested as previously described in radioimmunoprecipitation (RIPA) lysis buffer with protease inhibitors (Li, Y., et al., Int J Cardiol 220, 185-191 (2016)). Proteins were resolved on 4-20% (w/v) sodium dodecyl sulfate (SDS)-polyacrylamide gradient gels (Bio-Rad Mini-PROTEAN TGX) and transferred to Immobilon-P PVDF membranes (Millipore, USA). Membranes were blocked with 5% skim milk and incubated with rabbit monoclonal FosB (cat. 2251, 1:1000, Cell Signaling, USA), rabbit monoclonal c-Fos antibodies (cat. 2250, 1:1000, Cell Signaling, USA) at 4° C. overnight or mouse monoclonal […] antibodies (cat. A5316, 1:30000, Sigma-Aldrich) at 22° C. for 15 min then incubated with a horseradish peroxidase conjugated secondary goat anti-rabbit (cat. P0448, 1:1000, DAKO Cytomation, Denmark) or goat anti-mouse (cat. P0447, 1:1000, DAKO Cytomation, Denmark) antibodies for 1 h. Chemiluminescence was detected using the Western Lightning Chemiluminescence system (PerkinElmer, USA) and ImageQuant™ LAS 4000 biomolecular imager (GE Healthcare Life Sciences, USA). Band intensity in images generated with the LAS 4000 on automatic exposure with sensitivity/resolution setting high was quantified using NIH ImageJ.

HY79b pigmented rabbits = assay: Rabbit retinal vascular hyperpermeability model induced by rhVEGF-A165; format: in vivo
Protocol: Rabbit retinal vascular hyperpermeability model. Male HY79b pigmented rabbits (8-12 week-old) were anesthetized by an intramuscular injection of Rompun® (xylazine)/Imalgene® (ketamine). Compound (600 μg BT2, BT3 or saline vehicle containing 0.5% Tween 80 and 10% DMSO vehicle in 100 μl) was injected into the right eye 5d prior to rhVEGF-A165 induction. Injections were performed on anesthetized animals under an operating microscope using a 250 μl Hamilton syringe (fitted with 30G needle). Retinal vascular permeability was induced by a single 50 μl IVT injection of 500 ng rhVEGF-A165 (diluted in PBS with carrier protein) into the right eye. Forty-seven hours (+/−3 h) after induction, sodium fluorescein (10% in saline, 50 mg/kg) was injected into the marginal ear vein. One hour after fluorescein injection, animals were anaesthetized and pupils were dilated by instillation of one drop of 0.5% tropicamide. Ocular fluorescence in both eyes was measured with a FM-2 Fluorotron Master ocular fluorophotometer. Animals were euthanized by injection of pentobarbital.

FosB = assay: Matrigel plug assay, FosB staining; format: in vivo; details: C57BL/6 mice; 2.5 mg/mouse; 7 days
Protocol: Matrigel plug assay. Matrigel (500 μl) containing VEGF-A165 (100 ng/ml), heparin (10U) and BT2 or BT3 (2.5 mg/mouse) or its vehicle (saline containing 0.01% DMSO and 0.5% Tween 80) was injected subcutaneously into the left flanks of male 8 week-old C57BL/6 mice. After 7d the mice were sacrificed by CO2 asphyxiation and the plugs carefully removed. Formalin-fixed paraffin embedded sections were prepared from Matrigel plugs for immunohistological assessment. Heat-induced epitope retrieval was applied to all deparaffinized sections (4 μm Superfrost slides) in citrate buffer, pH 6 for 5 min at 110° C. Immunostaining for all groups with a given antibody was performed simultaneously and development time was identical. […]
Slides were scanned using an Aperio ScanScope XT slide scanner (Leica Biosystems, Mt Waverley, Vic Australia) and images captured using ImageScope software (Leica Biosystems). Positive intraplug staining was assessed using Image-Pro Plus software (Cybernetics, Bethesda, MD) in 5-12 randomly selected fields of view for each plug photographed under 10× (CD31), 20× (VCAM-1) and 40× (FosB) objectives and expressed as integrated optical density (IOD, the product of calibrated intensity (optical density) and area, i.e. IOD=intensity (mean)×area) (Media Cybernetics) (Liu, H., et al., Sci Rep 6, 21319 (2016)). […]

VCAM-1 = assay: Flow cytometry of VCAM-1 on IL-1β-treated HMEC-1; format: cell-based, human; details: 30 μM, 20 ng/ml IL-1β 4 h
Protocol: Flow cytometry. HMEC-1 (at 80-90% confluency) were arrested in serum-free MCDB131 medium without EGF or hydrocortisone for 40 h, treated with 30 μM BT2 or BT3 for 4 h. The cells were incubated in serum-free medium and exposed to 20 ng/ml IL-1β with the same concentration of BT2 or BT3 for a further 4 h. The cells were washed with PBS then detached with Accutase (Stem Cell Technologies, cat. 07920). The cells were centrifuged at 300 g for 5 min and resuspended at 5×10^6 cells/ml containing BT2 or BT3. The cells were incubated with BV421-conjugated mouse anti-human CD106 (VCAM-1) (BD, cat. 744309) or BV421-conjugated mouse IgG1 (BD, cat. 562438) for 45 min at 22° C. The cells were washed with Stain Buffer and the pellet was resuspended in 0.5 ml of 1% paraformaldehyde prior to flow cytometry BD FACSCanto II.
VCAM-1^+ and VCAM-1^− cells were gated by performing flow cytometry with or without primary VCAM-1 antibody (non-specific staining), respectively. […] The gating strategy is based on fluorescence excitation off both the 488 nm laser and 405 nm laser with emission filters 670LP off 488 nm and 450/50 off 405 nm. Cells with autofluorescence or negative (blue population) had equal proportion of fluorescence in both channels and VCAM-1 positive cells (red) emit light in the 450/50 filter.

[1] = Solubility on dilution in medium containing serum; format: physicochemical

CCOC(=O)Nc1ccc2c(c1)C(=O)N(CC)c1ccccc1O2 [BT2, (10-ethyl-11-oxo-10,11-dihydro-dibenzo[b,f][1,4]oxazepin-2-yl)-carbamic acid ethyl ester]
serum-inducible FosB/ΔFosB expression (Western blot) (FosB/ΔFosB): blocked the inducible expression of FosB and ΔFosB | inhibition of retinal leakage induced by rhVEGF-A165 (HY79b pigmented rabbits; single IVT 600 μg, 5 d before induction, after 2 days): ~50% | FosB immunoreactivity in Matrigel plugs (FosB): inhibited | VCAM-1 expression by flow cytometry (VCAM-1): inhibition of VCAM-1 | effect of serum in the diluent on solubility ([1]; adding serum to the diluent): increased BT2 solubility

CCN1C(=O)c2cc(N)ccc2Oc2ccccc21 [BT3, 2-amino-10-ethyldibenzo[b,f][1,4]oxazepin-11 (10H)-one]
serum-inducible FosB/ΔFosB expression (Western blot) (FosB/ΔFosB): no inhibition | effect on retinal vascular leakage induced by rhVEGF-A165 (HY79b pigmented rabbits; IVT 600 μg, fluorescence ratio R/L): inactive | solubility relative to BT2 and analogues ([1]; dilution in medium containing serum): the most soluble of all these dibenzoxazepinones
